The text below walks through data of US12370183B2, “Compositions and methods for treating malaria” (Rutgers, The State University of New Jersey, priority 2020, dated 2025).

The test system of series [1] is Wild-Type attB Pf Dd2. Briefly: P. falciparum (Dd2 strain) asexual blood stage assay, wild-type attB. In kind it is cell-based. The conditions noted are these: Plasmodium falciparum. How it is done:
(§1) Assays using human blood cells infected with Plasmodium falciparum: (Pf) parasites, both wild-type strains as well as mutant drug-resistant strains, were performed as described below. Wild-type strains used were aatB Pf (Dd2 strain) and Pf (Dd2 strain). Mutant strains used were proguanil resistant attb Pf (Dd2 strain), dihydroorotate dehydrogenase (DHODH) deficient aatB Pf (Dd2 strain), and DHODH deficient and proguanil resistant Pf (Dd2 strain).
(§2) 2008 Jul. 1; 105(26):9059-64.
(§3) Parasitemia was estimated by blood smear Giemsa stain and visual inspection under the microscopic.
(§4) The screening plate was prepared by centrifuging for parasite culture for 5 min at 800×g at RT (low brake) and removing supernatant. A parasite suspension was prepared with 0.3% parasitemia and 4% hematocrit in screening medium (SM). The suspension was gassed with a gas mixture of 1% oxygen, 3% carbon dioxide, 96% nitrogen and stored at 37° C. for until ready to use. 50 nl of 1 mM compound in DMSO was prespotted into 1536 well plates (final drug conc. of 12.5 μM, final DMSO conc. of 0.625%) with the acoustic dispenser ATS. Controls were Artemisinin, Chloroquine, and DMSO. 8 μl of SM was dispensed into 1,536-well, black, clear-bottom plates (Greiner) using the MultiFlo™ Microplate dispenser (BioTek) (final parasitemia of 0.3% and 2.5% hematocrit in SM). The plates were incubated at 37° C. for 72 h with water-soaked tissue in a closed ziploc bag gassed with 1% oxygen, 3% carbon dioxide, 96% nitrogen.
(§5) 2 μl of detection reagent mixture (10×SYBR Green I (Invitrogen) in Lysis buffer (20 mM Tris/HCl, 5 mM EDTA, 0.16% Saponin wt/vol, 1.6% Triton X vol/vol) was added. Assay plates were read from the bottom by using the 2104 EnVision® Multilabel Reader (PerkinElmer) (485 nm excitation, 530 nm emission). The results are presented in Table 5 below.

For series [2], the system named is DHODH deficient + Proguanil resistant Pf Dd2. Briefly: P. falciparum (Dd2 strain) asexual blood stage assay, DHODH deficient + proguanil resistant. In kind it is cell-based. The conditions noted are these: Plasmodium falciparum, DD2, 72 h, read-out: DHODH deficient + Proguanil resistant Pf Dd2 IC50 (uM). As to the method: as §1, §2, §3
The screening plate was prepared by centrifuging for parasite culture for 5 min at 800×g at RT (low brake) and removing supernatant. A parasite suspension was prepared with 0.3% parasitemia and 4% hematocrit in screening medium (SM). The suspension was gassed with a gas mixture of 1% oxygen, 3% carbon dioxide, 96% nitrogen and stored at 37° C. for until ready to use. […]
as §5

The test system of series [3] is resistant P. falciparum variant K1. The series is described as follows: Potency against resistant P. falciparum variant K1 (EC50). In kind it is cell-based. The conditions noted are these: Plasmodium falciparum.
Series [4] has as its system Proguanil resistant attB Pf Dd2. Briefly: P. falciparum (Dd2 strain) asexual blood stage assay, proguanil resistant attB. It counts as cell-based, Plasmodium falciparum. The conditions noted are these: for IC50: Plasmodium falciparum, DD2, 72 h, read-out: Proguanil resistant attB Pf Dd2 IC50 (uM). How it is done: as §1, §2, §3, §4, §5
A short description of series [5]: Stability of the pyrrolinone to acid followed by H-1 NMR. Particulars: methanol-D4, deuterated acetic acid dropwise; reversed by sodium hydride. It counts as physicochemical. As to the method:
Without wishing to be bound by any particular theory or mechanism of action, it can be contemplated that the unique aminal structure of the pyrrolinones imparts specific chemical behavior. Aminals are normally unstable functionalities that are prone to hydrolysis. To test the stability of the […], a solution of 177 in methanol-D4 was treated dropwise with deuterated acetic acid. The experiment was followed by H-1 NMR analysis by observing the reduction of the peaks at 6.12 ppm and 8.73 ppm and the appearance of a peak at 9.42. […] Basifying the solution with sodium hydride returns the mixture to pyrrolinone.

Setting [6] is: DD2, 72 h, read-out: Wild-Type attB Pf Dd2 IC50 (uM).
Setting [7] is: DD2, read-out: IC50 against wild-type attB Pf.

Read-outs that look alike come from different tables or passages of the source.

With `O=C(Nc1ccc(F)c(F)c1)c1c2c(nc3ccccc13)CCN(Cc1ccccc1)C2` [Compound 66, 2-Benzyl-N-(3,4-difluorophenyl)-1,2,3,4-tetrahydrobenzo[b][1,6]naphthyridine-10-carboxamide], the IC50 in series [1] (setting [6]) came out at 0.0565 µM; in series [1] (setting [7]), 0.0556 µM; in series [2] it was 0.028 µM; in series [4] it was 0.0699 µM. For the same compound, the EC50 amounted to 0.0108 µM in series [3] (K1, read-out: K1 EC50) and 0.279 µM in series [3] (K1, read-out: K1 EC50 (μM)).
Consider `O=C1c2c3c(nc4ccccc24)CCN(Cc2ccccc2)C3N1c1ccc(F)c(F)c1` (stereo not drawn) [Compound 177, 3-Benzyl-2-(3,4-difluorophenyl)-2a,3,4,5-tetrahydrobenzo[b]pyrrolo[4,3,2-de][1,6]naphthyridin-1(2H)-one], for which the IC50 in series [1] (setting [6]) came out at 0.00895 µM; in series [1] (setting [7]) it was 0.00895 µM; in series [2], 0.0103 µM; in series [4], 0.0113 µM. The “stability to acid, in words” value in series [5] is given as “Acidification causes the compound to begin conversion into another substance”. For the same compound, the “potency against a proguanil resistant attB mutant strain” value in series [4] (in words) is recorded as “undiminished potency”.
